According to US9040542B2, “Solid forms of gyrase inhibitor (R)-1-ethyl-3-[6-fluoro-5-[2-(1-hydroxy-1-methyl-ethyl)pryimidin-5-yl]-7-(tetrahydrofuran-2-yl)-1H-benzimidazol-2-yl]urea” (priority 2011, dated 2015):

Key:
S. aureus TopoIV enzyme = S. aureus TopoIV enzyme (Staphylococcus aureus, UniProt P0C1S7); assay: DNA Topo IV ATPase Assay; assay type: biochemical; conditions: 30° C., read-out: Ki, Inhibition of S. aureus DNA Topo IV
Procedure: The conversion of ATP to ADP by S. aureus TopoIV enzyme is coupled to the conversion of NADH to NAD+, and the progress of the reaction is measured by the change in absorbance at 340 nm. TopoIV (64 nM) is incubated with the selected compound (3% DMSO final) in buffer for 10 minutes at 30° C. The buffer consists of 100 mM Tris 7.5, 1.5 mM MgCl2, 200 mM K•Glutamate, 2.5 mM phosphoenol pyruvate, 0.2 mM NADH, 1 mM DTT, 5 μg/mL linearized DNA, 50 μg/mL BSA, 30 μg/mL pyruvate kinase, and 10 μg/mL lactate dehyrodgenase (LDH). The reaction is initiated with ATP, and rates are monitored continuously for 20 minutes at 30° C. on a Molecular Devices SpectraMAX plate reader. The inhibition constant, Ki, and the IC50 are determined from plots of rate vs. concentration of selected compound fit to the Morrison Equation for tight binding inhibitors.

S. aureus DNA gyrase = S. aureus DNA gyrase (Staphylococcus aureus, UniProt P0A0K8); assay: DNA Gyrase ATPase Assay; assay type: biochemical; conditions: 30° C., read-out: Ki, Inhibition of S. aureus DNA Gyrase
Procedure: The ATP hydrolysis activity of S. aureus DNA gyrase is measured by coupling the production of ADP through pyruvate kinase/lactate dehydrogenase to the oxidation of NADH. This method has been described previously (Tamura and Gellert, 1990, J. Biol. Chem., 265, 21342).
ATPase assays are carried out at 30° C. in buffered solutions containing 100 mM TRIS pH 7.6, 1.5 mM MgCl2, 150 mM KCl. The coupling system contains final concentrations of 2.5 mM phosphoenol pyruvate, 200 μM nicotinamide adenine dinucleotide (NADH), 1 mM DTT, 30 ug/ml pyruvate kinase, and 10 ug/ml lactate dehydrogenase. The enzyme (90 nM final concentration) and a DMSO solution (3% final concentration) of a compound is added. The reaction mixture is allowed to incubate for 10 minutes at 30° C. The reaction is initiated by the addition of ATP to a final concentration of 0.9 mM, and the rate of NADH disappearance is monitored at 340 nanometers over the course of 10 minutes. The Ki and IC50 values are determined from rate versus concentration profiles.

[1] = Stability data of solid forms on storage; assay type: physicochemical

CCNC(=O)Nc1nc2cc(-c3cnc(C(C)(C)O)nc3)c(F)c([C@H]3CCCO3)c2[nH]1 [Compound 23, 1-ethyl-3-[6-fluoro-5-[2-(1-hydroxy-1-methyl-ethyl)pyrimidin-5-yl]-7-[(2R)-tetrahydrofuran-2-yl]-1H-benzimidazol-2-yl]urea]
Ki (S. aureus TopoIV enzyme): 12 nM
Ki (S. aureus DNA gyrase): 9 nM
stability of solid form ([1]; 40° C. with relative humidity of up to 75%): stable for at least one month
chemical and physical stability ([1]; all storage conditions (25° C./60% RH, 40° C./ambient, and 40° C./75% RH), 1 month timepoint): chemically and physically stable
